How the values were obtained:
Assay type in all cases: cell-based
[1] = test system: panel of 8 DLBCL cell lines; assay: ATPLite growth inhibition assay across panel of 8 DLBCL cell lines; conditions: single agent, FIG. 9
OCI-Ly3 cells = assay: ATPLite growth inhibition assay, OCI-Ly3 cells; conditions: single agent, FIG. 10
Excerpt: (§1) Cells were thawed from a liquid nitrogen preserved state. […] Assay plates were accepted if they pass the following quality control standards: relative luciferase values were consistent throughout the entire experiment, Z-factor scores were greater than 0.6, untreated/vehicle controls behaved consistently on the plate. […]

Pfeiffer cells = assay: ATPLite growth inhibition assay, Pfeiffer cells; conditions: single agent, FIG. 10
Excerpt: as §1

NU-DHL-1 cells = assay: ATPLite growth inhibition assay, NU-DHL-1 cells; conditions: single agent, FIG. 10
Excerpt: as §1

DOHH-2 cells = assay: ATPLite growth inhibition assay, DOHH-2 cells; conditions: single agent, FIG. 10
Excerpt: as §1

OCI-Ly19 cells = assay: ATPLite growth inhibition assay, OCI-Ly19 cells; conditions: single agent, FIG. 10
Excerpt: as §1

SU-DHL-10 cells = assay: ATPLite growth inhibition assay, SU-DHL-10 cells; conditions: single agent, FIG. 10
Excerpt: as §1

How did the growth inhibition levels ([1]; all cell lines) turn out when `CN1CCC(c2ccccc2CC(C)(C)Nc2nc(N3CCOCC3)nc(-n3c(C(F)F)nc4ccccc43)n2)CC1` [Compound I, 4-(2-(difluoromethyl)-1H-benzo[d]imidazol-1-yl)-N-(2-methyl-1-(2-(1-methylpiperidin-4-yl)phenyl)propan-2-yl)-6-morpholino-1,3,5-triazin-2-amine] was run?
The growth inhibition levels was > 50%.

What about the GI50 ([1]; median across cell line panel, 72 hours) of the same molecule?
Its GI50 is 1.73 µM.

And the “growth inhibition effect type” value (OCI-Ly3 cells)?
Its value is “cytotoxic effects”.

And the “growth inhibition effect type” value (Pfeiffer cells)?
The value was “sub-cytostatic effects”.

And the “growth inhibition effect type” value (NU-DHL-1 cells)?
Its value is “sub-cytostatic effects”.

What about the “growth inhibition effect type” value (DOHH-2 cells) of the same molecule?
The value was “cytotoxic effects”.

And the “growth inhibition effect type” value (OCI-Ly19 cells)?
The value was “cytotoxic effects”.

And the “growth inhibition effect type” value (SU-DHL-10 cells)?
The value was “sub-cytostatic effects”.

Reference: patent US20210000838A1, “COMBINATION THERAPY” (MEI Pharma, Inc., priority 2018, published 2021)
